Laboratory results reported in ChEMBL document CHEMBL3612057, “Discovery of indolizines containing triazine moiety as new leads for the development of antitumoral agents targeting mitotic events” (2015).
Active and inactive are the calls of the source. The rule behind the calls is not given here.

Experiments:
[1] = tested on: CCRF-CEM; experiment: Cytotoxicity against human CCRF-CEM cells assessed as growth inhibition at 10 uM after 24 hrs by SRB assay; type: functional
[2] = tested on: HL-60(TB); experiment: Cytotoxicity against human HL-60(TB) cells assessed as growth inhibition at 10 uM after 24 hrs by SRB assay; type: functional
[3] = tested on: K562; experiment: Cytotoxicity against human K562 cells assessed as growth inhibition at 10 uM after 24 hrs by SRB assay; type: functional
[4] = tested on: RPMI-8226; experiment: Cytotoxicity against human RPMI8226 cells assessed as growth inhibition at 10 uM after 24 hrs by SRB assay; type: functional
[5] = tested on: SR; experiment: Cytotoxicity against human SR cells assessed as growth inhibition at 10 uM after 24 hrs by SRB assay; type: functional; conditions: read-out: GI
[6] = tested on: A549; experiment: Cytotoxicity against human A549 cells assessed as growth inhibition at 10 uM after 24 hrs by SRB assay; type: functional; conditions: A549, 24 h, read-out: GI
[7] = tested on: HOP-62; experiment: Cytotoxicity against human HOP62 cells assessed as growth inhibition at 10 uM after 24 hrs by SRB assay; type: functional; conditions: HOP-62, 24 h, read-out: GI
[8] = tested on: HOP-92; experiment: Cytotoxicity against human HOP92 cells assessed as growth inhibition at 10 uM after 24 hrs by SRB assay; type: functional
[9] = tested on: NCI-H226; experiment: Cytotoxicity against human NCI-H226 cells assessed as growth inhibition at 10 uM after 24 hrs by SRB assay; type: functional
[10] = tested on: NCI-H460; experiment: Cytotoxicity against human NCI-H460 cells assessed as growth inhibition at 10 uM after 24 hrs by SRB assay; type: functional
[11] = tested on: NCI-H522; experiment: Cytotoxicity against human NCI-H522 cells assessed as growth inhibition at 10 uM after 24 hrs by SRB assay; type: functional; conditions: NCI-H522, 24 h, read-out: GI
[12] = tested on: HCT-116; experiment: Cytotoxicity against human HCT116 cells assessed as growth inhibition at 10 uM after 24 hrs by SRB assay; type: functional; conditions: HCT-116, 24 h, read-out: GI
[13] = tested on: SF-295; experiment: Cytotoxicity against human SF295 cells assessed as growth inhibition at 10 uM after 24 hrs by SRB assay; type: functional; conditions: SF-295, 24 h, read-out: GI
[14] = tested on: SF-539; experiment: Cytotoxicity against human SF539 cells assessed as growth inhibition at 10 uM after 24 hrs by SRB assay; type: functional; conditions: SF-539, 24 h, read-out: GI
[15] = tested on: SNB-75; experiment: Cytotoxicity against human SNB75 cells assessed as growth inhibition at 10 uM after 24 hrs by SRB assay; type: functional; conditions: SNB-75, 24 h, read-out: GI
[16] = tested on: U-251; experiment: Cytotoxicity against human U251 cells assessed as growth inhibition at 10 uM after 24 hrs by SRB assay; type: functional; conditions: U-251, 24 h, read-out: GI
[17] = tested on: Malme-3M; experiment: Cytotoxicity against human MALME-3M cells assessed as growth inhibition at 10 uM after 24 hrs by SRB assay; type: functional
[18] = tested on: MDA-MB-435; experiment: Cytotoxicity against human MDA-MB-435 cells assessed as growth inhibition at 10 uM after 24 hrs by SRB assay; type: functional
[19] = tested on: SK-MEL-28; experiment: Cytotoxicity against human SK-MEL-28 cells assessed as growth inhibition at 10 uM after 24 hrs by SRB assay; type: functional
[20] = tested on: SK-MEL-5; experiment: Cytotoxicity against human SK-MEL-5 cells assessed as growth inhibition at 10 uM after 24 hrs by SRB assay; type: functional
[21] = tested on: UACC-257; experiment: Cytotoxicity against human UACC257 cells assessed as growth inhibition at 10 uM after 24 hrs by SRB assay; type: functional
[22] = tested on: UACC-62; experiment: Cytotoxicity against human UACC62 cells assessed as growth inhibition at 10 uM after 24 hrs by SRB assay; type: functional; conditions: UACC-62, 24 h, read-out: GI
[23] = tested on: OVCAR-3; experiment: Cytotoxicity against human OVCAR3 cells assessed as growth inhibition at 10 uM after 24 hrs by SRB assay; type: functional
[24] = tested on: OVCAR-4; experiment: Cytotoxicity against human OVCAR4 cells assessed as growth inhibition at 10 uM after 24 hrs by SRB assay; type: functional
[25] = tested on: OVCAR-8; experiment: Cytotoxicity against human OVCAR8 cells assessed as growth inhibition at 10 uM after 24 hrs by SRB assay; type: functional; conditions: OVCAR-8, 24 h, read-out: GI
[26] = tested on: NCI/ADR-RES; experiment: Cytotoxicity against human NCI/ADR-RES cells assessed as growth inhibition at 10 uM after 24 hrs by SRB assay; type: functional
[27] = tested on: SK-OV-3; experiment: Cytotoxicity against human SKOV3 cells assessed as growth inhibition at 10 uM after 24 hrs by SRB assay; type: functional; conditions: SK-OV-3, 24 h, read-out: GI
[28] = tested on: 786-0; experiment: Cytotoxicity against human 786-0 cells assessed as growth inhibition at 10 uM after 24 hrs by SRB assay; type: functional; conditions: 786-0, 24 h, read-out: GI
[29] = tested on: ACHN; experiment: Cytotoxicity against human ACHN cells assessed as growth inhibition at 10 uM after 24 hrs by SRB assay; type: functional; conditions: read-out: GI
[30] = tested on: CAKI-1; experiment: Cytotoxicity against human CAKI-1 cells assessed as growth inhibition at 10 uM after 24 hrs by SRB assay; type: functional
[31] = tested on: RXF 393; experiment: Cytotoxicity against human RXF393 cells assessed as growth inhibition at 10 uM after 24 hrs by SRB assay; type: functional; conditions: RXF 393, 24 h, read-out: GI
[32] = tested on: TK-10; experiment: Cytotoxicity against human TK10 cells assessed as growth inhibition at 10 uM after 24 hrs by SRB assay; type: functional; conditions: TK-10, 24 h, read-out: GI
[33] = tested on: PC-3; experiment: Cytotoxicity against human PC3 cells assessed as growth inhibition at 10 uM after 24 hrs by SRB assay; type: functional; conditions: PC-3, 24 h, read-out: GI
[34] = tested on: MCF7; experiment: Cytotoxicity against human MCF7 cells assessed as growth inhibition at 10 uM after 24 hrs by SRB assay; type: functional; conditions: MCF7, 24 h, read-out: GI
[35] = tested on: MDA-MB-231; experiment: Cytotoxicity against human MDA-MB-231 cells assessed as growth inhibition at 10 uM after 24 hrs by SRB assay; type: functional; conditions: MDA-MB-231, 24 h, read-out: GI
[36] = Cytotoxicity against human Hs578T cells assessed as growth inhibition at 10 uM after 24 hrs by SRB assay; type: functional; conditions: Hs-578T, read-out: GI
[37] = tested on: T47D; experiment: Cytotoxicity against human T47D cells assessed as growth inhibition at 10 uM after 24 hrs by SRB assay; type: functional; conditions: read-out: GI
[38] = species on record: Ovis aries; experiment: Inhibition of sheep tubulin polymerization at 100 uM by fluorescence assay

Row | SMILES | growth inhibition (GI) [2] | growth inhibition (GI) [3] | inhibition of growth at 10 µM [5] | inhibition of growth at 10 µM [6] | inhibition of growth at 10 µM [7] | growth inhibition (GI) [8] | inhibition of growth at 10 µM [11] | inhibition of growth at 10 µM [12] | inhibition of growth at 10 µM [13] | inhibition of growth at 10 µM [14] | inhibition of growth at 10 µM [15] | inhibition of growth at 10 µM [16] | growth inhibition (GI) [18] | growth inhibition (GI) [20] | growth inhibition (GI) [21] | inhibition of growth at 10 µM [22] | growth inhibition (GI) [23] | growth inhibition (GI) [24] | inhibition of growth at 10 µM [25] | inhibition of growth at 10 µM [27] | also measured
1 | COc1ccc(C(=O)c2cc(-c3nc(OC)nc(OC)n3)c3ccccn23)cc1 | inactive | inactive | 19% | 21% | 97% | inactive | 60% | 36% | 47% | 32% | -17% | 56% | inactive | inactive | inactive | 11% | inactive | inactive | 16% | 54% | growth inhibition (GI) [1]: inactive; growth inhibition (GI) [4]: inactive; inhibition of growth at 10 µM ([9]; NCI-H226, 24 h, read-out: GI): 12%; growth inhibition (GI) [10]: inactive; growth inhibition (GI) [17]: inactive; growth inhibition (GI) [19]: inactive; inhibition of growth at 10 µM ([26]; read-out: GI): 19%; inhibition of growth at 10 µM [28]: 27%; inhibition of growth at 10 µM [29]: 54%; inhibition of growth at 10 µM ([30]; CAKI-1, 24 h, read-out: GI): 26%; inhibition of growth at 10 µM [31]: 59%; inhibition of growth at 10 µM [32]: 18%; inhibition of growth at 10 µM [33]: 18%; inhibition of growth at 10 µM [34]: 13%; inhibition of growth at 10 µM [35]: 50%; inhibition of growth at 10 µM [36]: 25%; inhibition of growth at 10 µM [37]: 17%; inhibition [38]: inactive
2 | COc1nc(OC)nc(-c2cc(C(=O)c3ccc(Cl)cc3)n3ccccc23)n1 | inactive | inactive | 26% | 21% | 77% | inactive | 47% | 26% | 33% | 39% | -3% | 44% | inactive | inactive | inactive | 14% | inactive | inactive | 24% | 55% | inhibition of growth at 10 µM ([1]; read-out: GI): 11%; inhibition of growth at 10 µM ([4]; RPMI-8226, 24 h, read-out: GI): 13%; growth inhibition (GI) [9]: inactive; inhibition of growth at 10 µM ([10]; NCI-H460, 24 h, read-out: GI): 20%; inhibition of growth at 10 µM ([17]; read-out: GI): 30%; inhibition of growth at 10 µM ([19]; SK-MEL-28, 24 h, read-out: GI): 12%; growth inhibition (GI) [26]: inactive; inhibition of growth at 10 µM [28]: 31%; inhibition of growth at 10 µM [29]: 56%; growth inhibition (GI) [30]: inactive; inhibition of growth at 10 µM [31]: 37%; inhibition of growth at 10 µM [32]: 12%; inhibition of growth at 10 µM [33]: 19%; inhibition of growth at 10 µM [34]: 19%; inhibition of growth at 10 µM [35]: 43%; inhibition of growth at 10 µM [36]: 46%; inhibition of growth at 10 µM [37]: 19%; inhibition [38]: inactive
